Measurements: patent US4895589A, “Heterocyclic compounds” (Imperial Chemical Industries PLC, priority 1985, dated 1990)
Values after ≈ are worked out from the molar mass of the structure shown. Like-named read-outs stand apart in the source and are kept apart here.

Experiments:
[1] = tested on: plants (broad species spectrum); assay: Overall plant growth regulating effects in the Examples; type: in vivo; settings: 1000 ppm rate
[2] = Half life in soil; type: physicochemical
[3] = Solubility in water; type: physicochemical
[4] = tested on: Radish; settings: RA, 4000 ppm, 2-3 weeks
Method: (§1) The compounds were tested for plant growth regulator activity against up to tweleve plant species for various growth effects relevant to plant growth regulation.
(§2) Each chemical was applied at 4000 ppm (4 kg/ha in a 1000 l/ha field volume) using a tracksprayer and a SS8004E (Teejet) nozzle.
(§3) After spray, the plants were grown in a glasshouse with 25° C. day/22° C. night temperatures and supplementary lighting was supplied when necessary (from mercury vapour lamps), to provide a 16 hour photoperiod. The exception to this were the temperate cereals, wheat and barley, which were grown in 16° C. day 13° C. night temperatures
(§4) After 2-3 weeks in the glasshouse, depending on the time of year, the plants were visually assessed for morphological characteristics. Formulations blanks were used as controls to assess the Plants.

[5] = tested on: Rice; assay: Intermediate Retardant Test, rice; type: in vivo, Rice (Ishikari); settings: Oryza sativa, 672 h, ~28 days, read-out: Percentage Reduction in Height of Rice (Compared to formulation blank)
How it was run: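 Percentage height reduction relative to the formulation blank, assessed about 28 days post-treatment as height to top-most ligule (rice, spring barley) or to apex (apples). Compounds sprayed overall at 1000 and 4000 ppm (1 and 4 kg ha^-1 in 1000 l/ha), covering root and foliar uptake; rice grown immersed in paddy pots.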

[6] = tested on: Vines; settings: VN, 4000 ppm, 2-3 weeks
Method: as §1, §2, §3, §4

[7] = tested on: Maize; settings: MZ, 4000 ppm, 2-3 weeks
Method: as §1, §2, §3, §4

[8] = tested on: Lettuce; settings: LT, 4000 ppm, 2-3 weeks
Method: as §1, §2, §3, §4

SMILES: CCCCC#CC(O)(Cn1cncn1)C(C)(C)C (stereo not drawn) [Compound 1, 2,2-dimethyl-3-hydroxy-3-(hex-1-yne-1-yl)-4-(1,2,4-triazol-1-yl)-butane]
- retardant activity on barley and rice versus apples [1]: considerably more active as a cereal retardant on barley and rice than as a woody species retardant on apples
- half-life [2]: 7 to 14 days
- solubility [3]: 1900 µg/mL (≈ 7.62 mM)
- Retardation score (1-3) with greening (G), apical damage (A), tillering/side shooting (T) [4]: 2G
- Percent reduction in rice plant height vs formulation blank at 1000 ppm ([5]; Table VII): 24.6%
- Percent reduction in rice plant height vs formulation blank at 1000 ppm ([5]; side-by-side, Table XVI): 31%
- Percent reduction in rice plant height vs formulation blank at 4000 ppm ([5]; Table VII): 49.9%
- Percent reduction in rice plant height vs formulation blank at 4000 ppm ([5]; side-by-side, Table XVI): 53%
- Retardation score (1-3) with greening (G), apical damage (A), tillering/side shooting (T) [6]: 1GT
- Retardation score (1-3) with greening (G), apical damage (A), tillering/side shooting (T) [7]: 2GA

SMILES: CC(C)CC#CC(O)(Cn1cncn1)C(C)(C)C (stereo not drawn) [Compound 7, 2,2-dimethyl-3-hydroxy-3-(4-methyl-pent-1-yne-1-yl)-4-(1,2,4-triazol-1-yl)-butane]
- Percent reduction in rice plant height vs formulation blank at 1000 ppm ([5]; Table VII): 11.1%
- Percent reduction in rice plant height vs formulation blank at 1000 ppm ([5]; side-by-side, Table XVI): 27%
- Percent reduction in rice plant height vs formulation blank at 4000 ppm ([5]; Table VII): 26%
- Percent reduction in rice plant height vs formulation blank at 4000 ppm ([5]; side-by-side, Table XVI): 53%
- Retardation score (1-3) with greening (G), apical damage (A), tillering/side shooting (T) [8]: 1G
